One series has as its target T1, CCK2R (Rattus norvegicus, UniProt P30553).
T1 construct: host or cells: AR42J cells
T1 sequence (P30553 1-452): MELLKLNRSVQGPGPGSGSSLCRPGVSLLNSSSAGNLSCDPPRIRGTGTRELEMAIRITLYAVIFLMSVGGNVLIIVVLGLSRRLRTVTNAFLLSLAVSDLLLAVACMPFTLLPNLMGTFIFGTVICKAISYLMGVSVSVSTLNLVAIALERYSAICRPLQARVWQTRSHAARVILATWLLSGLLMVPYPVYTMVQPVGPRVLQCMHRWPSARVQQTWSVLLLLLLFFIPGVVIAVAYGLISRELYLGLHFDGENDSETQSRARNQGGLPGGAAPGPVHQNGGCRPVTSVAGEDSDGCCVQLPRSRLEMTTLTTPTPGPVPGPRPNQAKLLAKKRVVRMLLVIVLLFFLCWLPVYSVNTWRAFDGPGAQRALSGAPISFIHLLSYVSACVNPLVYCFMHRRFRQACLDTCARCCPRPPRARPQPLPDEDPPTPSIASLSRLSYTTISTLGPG
Nature of the series: Competitive cell-binding assay on AR42J cells with 125I-C3 as competitive ligand. Particulars: for IC50: AR42J cells, 125I-C3 competitive ligand, 37° C. 1 h, read-out: CCK2R/IC50; for Relative Binding Affinity CCK2R: based on mean IC50, C-2 = 1.00. Here is the method: (§1) AR42J cells (ATCC) were maintained in RPMI-1640 medium (Gibco) supplemented with 15% fetal bovine serum (Gibco) and 1% penicillin-streptomycin (BI) at 37° C. in a humidified incubator with 5% CO2. The culture medium was replaced with fresh medium every 2-3 days. Experiments were performed with cells at 70-80% confluence.
(§2) Binding Affinity Tested by Using ^125I-Labeled Competitive Ligands.
(§3) The binding affinities of test compounds were determined by a competitive cell-binding assay using ^125I-C1 and ^125I-C3 as the competitive ligand. The suspended AR42J cells at a density of 1~3×10^6 cells/mL in binding buffer (RPMI-1640 medium supplemented with 0.25% bovine serum albumin) were transferred to a MultiScreen-DV Filter Plate (Millipore) with 100 μL per well except the blank group where the binding buffer was used instead. The cells were then incubated with ^125I-C1 and ^125I-C3 (0.02 μCi/well) in the presence of increasing concentrations (0-10000 nM) of test compounds at 37° C. for 1 h (n=3). The final volume in each well was maintained at 200 μL and insufficient volume was adjusted by the binding buffer. After the 1 h incubation, unbound ^125I-competitive ligands were removed by filtration using a Multiscreen vacuum manifold (Millipore) followed by rinses with the binding buffer (3 times). The filters were collected, and their radioactivity were individually measured by γ counter (2480 WIZARD2, PerkinElmer). The best-fit IC50value (inhibitory concentration when 50% of the bound ^125I-C1 and ^125l I-C3 on cells were displaced) of test compounds were calculated by fitting the data with nonlinear regression using GraphPad Prism 8.0.1.

For the next series, the target named is T2, SSTR2 (Rattus norvegicus, UniProt P30680).
T2 construct: host or cells: AR42J cells
Nature of the series: Competitive cell-binding assay on AR42J cells with 125I-C1 as competitive ligand. Particulars: for Relative Binding Affinity SSTR2: based on mean IC50, C-1 = 1.00. Here is the method: as §1, §2, §3

The next series is described as follows: in vivo. Particulars: BALB/c nude, mouse, in vivo, iv, total radioactivity. In short, it runs like this: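 Tissue uptake given as % ID and % ID/g from γ counting of organs taken 4, 24 and 72 h after injection into BALB/c nude mice carrying subcutaneous AR42J xenografts (0.05-0.50 g). Tracers were ^177Lu-labelled at 95° C for 15 min in pH 4.5 NaOAc buffer and used neat or diluted in PBS containing 3 mg/mL ascorbate.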

For orientation: tissue uptake means the percentage of the injected dose found per gram of tissue.

T2 sequence (P30680 whole entry): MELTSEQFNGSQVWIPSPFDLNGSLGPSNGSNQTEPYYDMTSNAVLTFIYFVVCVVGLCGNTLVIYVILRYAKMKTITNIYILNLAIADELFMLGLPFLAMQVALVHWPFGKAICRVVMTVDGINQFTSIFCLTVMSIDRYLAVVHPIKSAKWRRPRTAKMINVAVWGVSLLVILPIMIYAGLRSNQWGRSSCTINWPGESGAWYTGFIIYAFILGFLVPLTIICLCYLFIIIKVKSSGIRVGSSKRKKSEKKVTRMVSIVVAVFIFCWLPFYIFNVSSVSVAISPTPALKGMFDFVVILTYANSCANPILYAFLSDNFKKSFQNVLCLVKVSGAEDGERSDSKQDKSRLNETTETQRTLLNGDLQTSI

Turning to `C[C@@H](O)C(NC(=O)[C@@H]1CSSC[C@H](NC(=O)[C@@H](Cc2ccccc2)NC(=O)COCCOCCNC(=O)[C@H](CCCCNC(=O)CC[C@H](NC(=O)CNC(=O)c2cccc(NC(=O)N[C@@H]3CN(C4CCCCC4)c4ccccc4N(CC(=O)C(C)(C)C)C3=O)c2)C(=O)O)NC(=O)COCCOCCNC(=O)CCC(C(=O)O)N2CCN(CC(=O)O)CCN(CC(=O)O)CCN(CC(=O)O)CC2)C(=O)N[C@@H](Cc2ccc(O)cc2)C(=O)N[C@H](Cc2c[nH]c3ccccc23)C(=O)N[C@@H](CCCCN)C(=O)N[C@@H]([C@@H](C)O)C(=O)N1)C(=O)O` (stereo in doubt) [Compound I-20, DOTAGA- OEG- K(-gE- G- Z360)- OEG- f[CYwKTC]T- OH], at CCK2R, the IC50 was found to be 1.4 nM and the “Relative Binding Affinity CCK2R” value was found to be 12.1. In addition, the IC50 at SSTR2 (AR42J cells, 125I-C1 competitive ligand, 37° C. 1 h, read-out: SSTR2/IC50) is 0.781 nM. For the same molecule, the “Relative Binding Affinity SSTR2” value on SSTR2 was determined as 3.60.

`CCCC[C@H](NC(=O)[C@H](Cc1c[nH]c2ccccc12)NC(=O)CNC(=O)[C@H](Cc1ccc(O)cc1)NC(=O)[C@H](C)NC(=O)[C@@H](CCC(=O)O)NC(=O)[C@@H](CCC(=O)O)NC(=O)[C@@H](CCC(=O)O)NC(=O)[C@@H](CCC(=O)O)NC(=O)[C@@H](CCC(=O)O)NC(=O)[C@@H](CCC(=O)O)NC(=O)CN1CCN(CC(=O)O)CCN(CC(=O)O)CCN(CC(=O)O)CC1)C(=O)N[C@@H](CC(=O)O)C(=O)N[C@@H](Cc1ccccc1)C(N)=O` [Compound C-2, DOTA-e-e-e-e-e-e-AYGW-Nle-DF-NH2, reference compound]: on CCK2R, the IC50 amounted to 17 nM and the “Relative Binding Affinity CCK2R” value turned out to be 1.00. The “Relative Binding Affinity SSTR2” value on SSTR2 was <0.001.

As for `CC(C)(C)C(=O)CN1C(=O)[C@H](NC(=O)Nc2cccc(C(=O)N[C@@H](CCC(=O)N[C@@H](CCC(=O)N[C@@H](CCC(=O)N[C@@H](CCCCNC(=O)COCCOCCNC(=O)COCCOCCNC(=O)CCC(C(=O)O)N3CCN(CC(=O)O)CCN(CC(=O)O)CCN(CC(=O)O)CC3)C(N)=O)C(=O)O)C(=O)O)C(=O)O)c2)CN(C2CCCCC2)c2ccccc21` (stereo partly shown) [Compound C-4, Z360-gE-gE-gE-K(-OEG-OEG-DOTAGA)-NH2, reference compound], the “Relative Binding Affinity CCK2R” value at CCK2R is on record as 21.9.

As to `C[C@@H](O)[C@H](NC(=O)[C@@H]1CSSC[C@H](NC(=O)[C@@H](Cc2ccccc2)NC(=O)[C@H](CCCCNC(=O)[C@H](CCC(=O)O)NC(=O)c2cccc(NC(=O)N[C@@H]3CN(C4CCCCC4)c4ccccc4N(CC(=O)C(C)(C)C)C3=O)c2)NC(=O)CN2CCN(CC(=O)O)CCN(CC(=O)O)CCN(CC(=O)O)CC2)C(=O)N[C@@H](Cc2ccc(O)cc2)C(=O)N[C@H](Cc2c[nH]c3ccccc23)C(=O)N[C@@H](CCCCN)C(=O)N[C@@H]([C@@H](C)O)C(=O)N1)C(N)=O` [Compound I-4, DOTA-K(-E-Z360)-f[CYwKTC]T-NH2], on CCK2R, the “Relative Binding Affinity CCK2R” value amounted to 53.1. The “Relative Binding Affinity SSTR2” value at SSTR2 was 0.90.

For the molecule `C[C@@H](O)[C@H](NC(=O)[C@@H]1CSSC[C@H](NC(=O)[C@@H](Cc2ccccc2)NC(=O)COCCOCCNC(=O)[C@H](CCCCNC(=O)[C@H](CCC(=O)O)NC(=O)c2cccc(NC(=O)N[C@@H]3CN(C4CCCCC4)c4ccccc4N(CC(=O)C(C)(C)C)C3=O)c2)NC(=O)CN2CCN(CC(=O)O)CCN(CC(=O)O)CCN(CC(=O)O)CC2)C(=O)N[C@@H](Cc2ccc(O)cc2)C(=O)N[C@H](Cc2c[nH]c3ccccc23)C(=O)N[C@@H](CCCCN)C(=O)N[C@@H]([C@@H](C)O)C(=O)N1)C(=O)O` [Compound I-27, DOTA-K(-E-Z360)-OEG-f[CYwKTC]T-OH], the “Relative Binding Affinity SSTR2” value at SSTR2 is listed as 0.51. Moreover, the tissue to tissue ratio at 24 h in the series “in vivo” (T/K Tumor/Kidney ratio) turned out to be 1.4; in “in vivo” (T/L Tumor/Liver ratio), 26; in “in vivo” (T/P Tumor/Pancreas ratio), 16; in “in vivo” (T/Sp Tumor/Spleen ratio), 64; in “in vivo” (T/St Tumor/Stomach ratio) it was 6.3. The tissue uptake at 24 h in “in vivo” (uptake Kidney) was 21 %ID/g; in “in vivo” (uptake Liver), 1.11 %ID/g; in “in vivo” (uptake Pancreas) it was 1.79 %ID/g; in “in vivo” (uptake Spleen), 0.44 %ID/g; in “in vivo” (uptake Stomach), 4.51 %ID/g; in “in vivo” (uptake Tumor), 28.5 %ID/g.

These data come from patent US20260248972A1, “DUAL RECEPTOR TARGETING RADIOLIGANDS AND USES THEREOF RELATED APPLICATIONS” (priority 2022, published 2026).
